Data on 1 compound can be found in US20260115250A1, “METHODS OF TREATING AGE-RELATED MACULAR DEGENERATION” (Character Biosciences, Inc., priority 2022, published 2026).

Peptide text beside a SMILES is read from it.

The subject of one test is ARPE-19 cells. The test is described as follows: ARPE-19 cholesterol import (BODIPY-Cholesterol). Type of test: cell-based, human. Conditions: ARPE-19, 0.37-30 μM peptide, FIG. 15. On the procedure: FIG. 12 and FIGS. 14A-14B illustrate the results of ARPE-19 cholesterol import testing. ARPE-19 cells were seeded on 96-well plates at 25,000 cells per well and grown to confluence. A 2× solution of 500 μM DMPC and 50 μM BODIPY-Cholesterol were prepared in serum free DMEM: F12. Peptides were diluted to 20 μM in serum free DMEM: F12 (a 2× solution). Peptides were added to lipid solution in equal parts (60 μL each) and were incubated for 1 hour at 37° C. ARPE-19 cells were serum starved in serum free DMEM: F12 for 1 hour at 37° C. Peptide: Lipid complexes (100 μL total volume per well) were transferred to ARPE-19 cells for 2 hours at 37° C. Cells were washed, fixed, and intracellular fluorescence was read on Promega GloMax at 475 nm excitation, 500-550 emission. Fluorescence values were background corrected from no treatment conditions. Data are presented as mean+SD for two runs.
FIG. 15 illustrates ARPE-19 cholesterol import titration curves for a subset of the peptides. ARPE-19 cells were seeded on 96-well plates at 25,000 cells per well and grown to confluence. A 2× solution of 500 μM DMPC and 50 μM BODIPY-Cholesterol was prepared in serum free DMEM: F12. Peptides were diluted to 0.74-60 μM in serum free DMEM: F12 (2× solutions). Peptides were added to lipid solution in equal parts (60 μL each) to create final peptide concentrations of 0.37-30 µM and incubated for 1 hour at 37° C. ARPE-19 cells were serum starved in serum free DMEM: F12 for 1 hour at 37° C. Peptide: Lipid complexes (100 μL total volume per well) were transferred to ARPE-19 cells for 2 hours at 37° C. Cells were washed, fixed, and intracellular fluorescence was read on Promega GloMax at 475 nm excitation, 500-550 emission. Fluorescence values were background corrected from no treatment conditions. […]
ARPE-19 cells were seeded on 96-well plates at 25,000 cells per well and grown to confluence. […] Cells were washed, fixed, and intracellular fluorescence was read on Promega GloMax at 475 nm excitation, 500-550 emission. Fluorescence values were background corrected from no treatment conditions. […]

A short description of test [1]: peptide binding to non-oxidized and oxidized lipids (SPR). The note with it: immobilized peptide; RU normalized to DMPC. The protocol:
FIGS. 25A-25O show peptide binding activity to non-oxidized and oxidized lipids via SPR for indicated peptides. Peptides were reconstituted to 50 μg/mL in 10 mM acetate buffer, pH 4.5 and immobilized to ˜200 RU on a CM5 chip via amine coupling. Non-oxidized lipids (DMPC & POPC) and oxidized lipids (POVPC & KOdiA-PC) were diluted to 100 µM in HBS-EP running buffer and exposed to the chip for binding (n=3) at a flow rate of […] for 120 seconds. The surface was regenerated with 20% EtOH. T-001 served as a positive control and T-031 served as a negative control on each chip. For each peptide, the RU response for all lipids was normalized to the DMPC RU values.

As to `CC[C@H](C)[C@H](NC(=O)CNC(=O)[C@H](CO)NC(=O)[C@@H](NC(=O)[C@H](Cc1c[nH]c2ccccc12)NC(=O)[C@H](Cc1c[nH]cn1)NC(=O)[C@H](CCC(=O)O)NC(=O)[C@H](Cc1ccccc1)NC(=O)[C@H](CCCNC(=N)N)NC(=O)[C@H](CC(C)C)NC(=O)[C@H](CC(C)C)NC(=O)[C@H](CCCNC(=N)N)NC(=O)[C@H](CCCCN)NC(=O)[C@H](CCCNC(=N)N)NC(=O)[C@H](CC(C)C)NC(=O)[C@H](CCCCN)NC(=O)[C@H](CCCNC(=N)N)NC(=O)[C@H](CC(C)C)NC(=O)[C@@H](N)Cc1c[nH]cn1)[C@@H](C)CC)C(=O)N[C@@H](Cc1ccc(O)cc1)C(=O)N[C@@H](CO)C(=O)N[C@@H](CCC(=O)O)C(=O)N[C@@H](CS)C(=O)N[C@@H](CCCCN)C(=O)N[C@@H](Cc1c[nH]cn1)C(=O)N[C@@H](CC(C)C)C(=O)N[C@H](C(=O)N[C@@H](CCC(N)=O)C(=O)N[C@@H](CCC(=O)O)C(=O)O)[C@@H](C)CC` [T-025] (H-HLRKLRKRLLRFEHWISGIYSECKHLIQE-OH; N-terminus and C-terminus assumed), the cholesterol import titration entry in the test with ARPE-19 cells is recorded as “concentration-dependent increase in cholesterol import”. For the same compound, the “binding to oxidized lipids relative to DMPC” value in test [1] was “binding to at least one oxidized lipid that was equivalent or improved to binding against DMPC”.
